These results are taken from patent publication US11369565B2, “Amino-pyrimidine skeletal muscle modulators” (Cytokinetics, Inc., priority 2010, dated 2022).

Structures are written as SMILES.

The subject of this test is rabbit skeletal myofibrils (approximately 90% fast fibers). Briefly: Activation of fast skeletal myofibrils (PUMA coupled-enzyme ATPase assay at pCa25). The class given is biochemical. As to conditions: concentration at which the compound increased the enzymatic activity by 40%; calcium at pCa25; PM12 buffer pH 6.8. Summed up: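 In pH 6.8 PM12 buffer (12 mM Pipes, 2 mM MgCl2, 1 mM DTT), ADP from myosin regenerated via pyruvate kinase/lactate dehydrogenase, with absorbance change at 340 nm from NADH oxidation as read-out. Calcium set at pCa25; Triton-washed rabbit skeletal myofibrils (about 90% fast fibres) used.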
Regarding `NC(=O)c1ccc(F)cc1-c1cnc(NC[C@]2(c3ncccc3F)C[C@H](F)C2)nc1` [4-fluoro-2-[2-({[3-fluoro-1-(3-fluoro(2-pyridyl))cyclobutyl]methyl}amino)pyrimidin-5-yl]benzamide], the “Mean AC1.4” value is listed as “B (B=1-10 uM)”. Turning to `CS(=O)(=O)NCCNC(=O)c1cnc(NCC2(c3ncccc3F)CCC2)nc1` [[2-({[(3-fluoro(2-pyridyl))cyclobutyl]methyl}amino)pyrimidin-5-yl]-N-[(methylsulfonyl)amino]ethyl} carboxamide], the “Mean AC1.4” value is reported as “D (D=>20 uM)”. On to `CCOC(=O)c1cc2cnc(NCC3(c4ncccc4F)CCC3)nc2s1` [ethyl 2-({[(3-fluoro-2-pyridyl)cyclobutyl]methyl}amino) thiopheno[2,3-d]pyrimidine-6-carboxylate], for which the “Mean AC1.4” value is “D (D=>20 uM)”. As for `CC(C)(Nc1ncc(C(N)=O)cn1)c1ncccc1Cl` [2-{[1-(3-chloro(2-pyridyl))-isopropyl]amino}pyrimidine-5-carboxamide], the “Mean AC1.4” value is on record as “D (D=>20 uM)”. Consider `CC(C)(Nc1nccc(-c2nccs2)n1)c1ncccc1Cl` [[1-(3-chloro(2-pyridyl))-isopropyl](4-(1,3-thiazol-2-yl)pyrimidin-2-yl)amine], for which the “Mean AC1.4” value is reported as “D (D=>20 uM)”. As for `CC(C)(Nc1ncc(-c2ccnc(C(N)=O)c2)cn1)c1ncccc1Cl` [4-(2-{[1-(3-chloro(2-pyridyl))-isopropyl]amino}pyrimidin-5-yl)pyridine-2-carboxamide], the “Mean AC1.4” value is given as “B (B=1-10 uM)”. As to `N#Cc1cc(-c2cnc(NC3(c4ccc(F)cc4)CCC3)nc2)ccn1` [4-(2-{[(4-fluorophenyl)cyclobutyl]amino}pyrimidin-5-yl)pyridine-2-carbonitrile], the “Mean AC1.4” value was “C (C=10-20 uM)”. On to `CC(C)(Nc1ncc(-c2cccc(C(N)=O)c2)cn1)c1ccc(S(C)(=O)=O)cc1` [3-[2-({1-methyl-1-[4-(methylsulfonyl)phenyl]ethyl}amino)pyrimidin-5-yl)benzamide], for which the “Mean AC1.4” value is “D (D=>20 uM)”. Turning to `N#Cc1cccc(-c2cnc(NCC3(c4ncccc4Cl)CCC3)nc2)c1` [3-[2-({[(3-chloro-2-pyridyl)cyclobutyl]methyl}amino)pyrimidin-5-yl]benzenecarbonitrile], the “Mean AC1.4” value is given as “A (A=<1 uM)”. With `CS(=O)(=O)N1CC(NC(=O)c2ccc(F)c(-c3cnc(NC[C@]4(c5ncccc5F)C[C@H](F)C4)nc3)c2)C1` [{4-fluoro-3-[2-({[3-fluoro-1-(3-fluoro(2-pyridyl))cyclobutyl)]methyl}amino)pyridin-5-yl]phenyl}-N-[1-(methylsulfonyl)azetidin-3-yl]carboxamide], the “Mean AC1.4” value was 6 µM.

For `NC(=O)Cc1cnc(-c2cnc(NC[C@]3(c4ncccc4F)C[C@H](F)C3)nc2)s1` [2-{2-[2-({[3-fluoro-1-(3-fluoro(2-pyridyl))cyclobutyl]methyl)amino)pyrimidin-5-yl]-1,3-thiazol-5-yl}acetamide], the “Mean AC1.4” value was “B (B=1-10 uM)”. With `C[S+]([O-])c1ccc(C(C)(C)Nc2ncc(-c3cccc(C(N)=O)c3)cn2)cc1` (stereo not drawn) [3-(2-(2-(4-(methylsulfinyl)phenyl)propan-2-ylamino)pyrimidin-5-yl)benzamide] the entry was “D (D=>20 uM)”; with `NC(=O)c1cccc(-c2cnc(NCC3(c4ncccc4Cl)CCC3)nc2)c1` [3-[2-({[(3-chloro-2-pyridyl)cyclobutyl]methyl}amino)pyrimidin-5-yl]benzamide], “A (A=<1 uM)”.

Turning to `CC(C)(C)OC(=O)NCc1cnc(-c2cnc(NCC3(c4ccccn4)CCC3)nc2)s1` [(tert-butoxy)-N-{[2-(2-{[(2-pyridylcyclobutyl)methyl]amino}pyrimidin-5-yl)(1,3-thiazol-5-yl)]methyl}carboxamide], the “Mean AC1.4” value is “B (B=1-10 uM)”. For the compound `CC(C)(Nc1ncc(-c2cccc(C(N)=O)c2)cn1)c1ccccc1S(C)(=O)=O` [3-[2-({1-methyl-1-[2-(methylsulfonyl)phenyl]ethyl}amino)pyrimidin-5-yl]benzamide], the “Mean AC1.4” value is given as “D (D=>20 uM)”.

Consider `O=C(Nc1ccncc1)c1cnc(NCC2(c3ncccc3F)CCC2)nc1` [[2-({[(3-fluoro(2-pyridyl))cyclobutyl]methyl}amino)pyrimidin-5-yl]-N-(4-pyridyl)carboxamide], for which the “Mean AC1.4” value is “B (B=1-10 uM)”. In the case of `N#Cc1ccc2nc(NC3(c4ncccc4F)CCC3)ncc2c1` [2-{[(3-fluoro-2-pyridyl)cyclobutyl]amino}quinazoline-6-carbonitrile], the “Mean AC1.4” value is “D (D=>20 uM)”. With `CC(C)(C)OC(=O)NCCNC(=O)c1cnc(NCC2(c3ncccc3F)CCC2)nc1` [N-{2-[(tert-butoxy)carbonylamino]ethyl}[2-({[(3-fluoro(2-pyridyl))cyclobutyl]methyl}amino)pyrimidin-5-yl]carboxamide], the “Mean AC1.4” value is reported as “D (D=>20 uM)”. With `COCCNc1nc(NC[C@]2(c3ncccc3F)C[C@H](F)C2)ncc1-c1ccccc1` [[2-({[3-fluoro-1-(3-fluoro(2-pyridyl))cyclobutyl]methyl}amino-5-phenylpyrimidin-4-yl](2-methoxyethyl)amine], the “Mean AC1.4” value was “D (D=>20 uM)”.

On to `CC(C)[C@H](Nc1ncc(-c2ncc(C(N)=O)s2)cn1)c1ncccc1Cl` [2-(2-{[(1S)-1-(3-chloro(2-pyridyl))-2-methylpropyl]amino}pyrimidin-5-yl)-1,3-thiazole-5-carboxamide], for which the “Mean AC1.4” value is “D (D=>20 uM)”.

As to `CC(C)(C)Nc1ncc(-c2ccc3[nH]nc(N)c3c2)cn1` [[5-(3-amino(1H-indazol-5-yl))pyrimidin-2-yl]tert-butyl)amine], the “Mean AC1.4” value is recorded as “B (B=1-10 uM)”. With `CC(C)(Nc1ncc(-c2ncc(CNC(=O)c3cnc(O)[nH]3)s2)cn1)c1ncccc1F` [N-{[2-(2-{[1-(3-fluoro(2-pyridyl))-isopropyl}amino}pyrimidin-5-yl)(1,3-thiazol-5-yl)]methyl}(2-hydroxyimidazol-5-yl)carboxamide] the entry was “C (C=10-20 uM)”; with `CC(C)[C@H](Nc1ncc(-c2ncc(C#N)s2)cn1)c1ncccc1Cl` [2-(2-{[(1S)-1-(3-chloro(2-pyridyl))-2-methylpropyl]amino}pyrimidin-5-yl)-1,3-thiazole-5-carbonitrile], “D (D=>20 uM)”; with `NC(=O)c1ccc(C(N)=O)c(-c2cnc(NC[C@]3(c4ncccc4F)C[C@H](F)C3)nc2)c1` [2-[2-({[3-fluoro-1-(3-fluoro(2-pyridyl))cyclobutyl)]methyl}amino) pyrimidin-5-yl]benzene-1,4-dicarboxamide], “B (B=1-10 uM)”. As to `NC(=O)Cc1ccccc1-c1cnc(NC[C@]2(c3ncccc3F)C[C@H](F)C2)nc1` [2-{2-[2-({[3-fluoro-1-(3-fluoro(2-pyridyl))cyclobutyl)]methyl}amino)pyrimidin-5-yl]phenyl)acetamide], the “Mean AC1.4” value is reported as “C (C=10-20 uM)”. As to `NC(=O)c1ccc(F)c(-c2cnc(NCC3(c4ccccn4)CCC3)nc2)c1` [4-fluoro-3-(2-{[(2-pyridylcyclobutyl]methyl]amino}pyrimidin-5-yl)benzamide], the “Mean AC1.4” value is listed as “A (A=<1 uM)”. The same measure for `COc1nc(N(C)C[C@]2(c3ncccc3F)C[C@H](F)C2)ncc1-c1ccccc1` [{[3-fluoro-1-(3-fluoro(2-pyridyl))cyclobutyl]methyl}(4-methoxy-5-phenylpyrimidin-2-yl)methylamine]: “D (D=>20 uM)”.
